PMC8165744, “Identification of an Alternative Glycyrrhizin Metabolite Causing Liquorice-Induced Pseudohyperaldosteronism and the Development of ELISA System to Detect the Predictive Biomarker” (Frontiers in Pharmacology, 2021)

Legend:
albumin = molecular target: T1, albumin (Rattus norvegicus, UniProt P02770); experiment: binding of compound 4 to albumin in pooled EHBR plasma (ultrafiltration); assay type: in vitro ADME, Eisai hyperbilirubinuria rats (EHBRs)
T1 construct: from tissue; host or cells: pooled plasma of EHBRs orally treated with GA
Protocol: (§1) Binding of Compound 4 to Albumin
(§2) We measured the binding ratios of 4 to albumin in pooled plasma of female EHBRs using the same protocol used in our previous study ([Ishiuchi et al., 2019]).
(§3) The pooled plasma samples collected from EHBRs 12 h after oral treatment with GA were loaded into ultracentrifuge filters with a 1 × 10^4 molecular weight cut-off and concentrated by centrifugation. The concentrations of 4 in the pooled plasma and the filtrate were 77 µM and undetectable, respectively. Based on the detection limits (3.2 nM) in the LC-MS/MS analysis, the albumin-binding ratios of 4 in the plasma was calculated to be more than 99.9%.

[1] = as above; assay type: in vitro ADME, Eisai hyperbilirubinuria rats (EHBRs); settings: female, Eisai hyperbilirubinuria rat (EHBR), rat, 200 mg/kg; pooled plasma of EHBRs 12 h after oral GA
Protocol: as §1, §2, §3

human OAT3 = molecular target: T2, human OAT3 (Homo sapiens, UniProt Q8TCC7); experiment: uptake into HEK293 cells transfected with OAT3; assay type: in vitro ADME; settings: HEK293, EHBR plasma, 37°C, 15 min
T2 construct: expressed in transfected cells; host or cells: HEK293 cells, pCI-neo vector
T2 sequence (Q8TCC7 1-542): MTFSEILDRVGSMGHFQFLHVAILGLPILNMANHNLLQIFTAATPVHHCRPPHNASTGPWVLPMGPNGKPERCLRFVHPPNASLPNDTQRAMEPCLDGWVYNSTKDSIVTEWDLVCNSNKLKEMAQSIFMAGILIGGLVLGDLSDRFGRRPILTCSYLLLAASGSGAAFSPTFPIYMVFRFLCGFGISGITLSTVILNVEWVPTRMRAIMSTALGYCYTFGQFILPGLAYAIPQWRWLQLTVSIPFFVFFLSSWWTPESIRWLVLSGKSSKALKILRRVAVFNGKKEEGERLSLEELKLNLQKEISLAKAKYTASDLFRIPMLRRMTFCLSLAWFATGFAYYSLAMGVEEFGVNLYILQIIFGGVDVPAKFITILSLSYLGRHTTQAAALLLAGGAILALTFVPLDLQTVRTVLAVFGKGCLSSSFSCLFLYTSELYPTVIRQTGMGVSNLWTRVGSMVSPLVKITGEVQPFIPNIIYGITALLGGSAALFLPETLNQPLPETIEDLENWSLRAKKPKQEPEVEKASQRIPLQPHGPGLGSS
Excerpt: (§4) Uptake of Compound 4 by Rat Kidney Slices and Cells Expressing OAT1 and 3
(§5) For the uptake study of 4 into rat kidney slices, we used the samples obtained in our previous study ([Ishiuchi et al., 2019]). For the uptake study of 4 into the cells transiently expressing OAT1 and OAT3, we used the same protocol as in our previous study ([Makino et al., 2012]). cDNAs encoding human OAT1 and OAT3 inserted into pGH19 were generously supplied by Prof. Mitsuru Sugawara (Hokkaido University, Sapporo, Japan), and then subcloned into a pCI-neo mammalian expression vector (Promega, Madison, WI, United States). We used the same pooled plasma of male EHBRs orally treated with GA for 12 h used in our previous study ([Ishiuchi et al., 2019]).
(§6) FIGURE 2 Inhibitory effects of compound 4 on type-2 11β-hydroxysteroid dehydrogenase (11β-HSD2) using rat kidney microsome (A), and the uptake of 4 into rat kidney slices (B) or into HEK293 cells transfected with organic anion transporter (OAT) 1 (C) or OAT3 (D). […] Then, the amount of [^3H] cortisol was measured. […] Concentrations of 4 in kidney slice homogenates were measured using liquid chromatography-tandem mass spectrometry (LC-MS/MS). **p < 0.01 vs 4°C group using Student’s t-test (C) Male EHBRs were orally treated with GA (200 mg/kg) and their plasma samples were collected […] after treatment. […] Then, concentrations of 4 in cells were measured using LC-MS/MS. […]

rat kidney slices = experiment: uptake into rat kidney slices; assay type: in vitro ADME, Sprague-Dawley (SD) rats; settings: SD rat kidney slices incubated with pooled EHBR plasma for 2 h; p < 0.01
Excerpt: as §4, §5, §6

human OAT1 = molecular target: T3, human OAT1 (Homo sapiens, UniProt Q4U2R8); experiment: uptake into HEK293 cells transfected with OAT1; assay type: in vitro ADME; settings: HEK293, EHBR plasma, 37°C, 15 min
T3 construct: expressed in transfected cells; host or cells: HEK293 cells, pCI-neo vector
T3 sequence (Q4U2R8 1-563): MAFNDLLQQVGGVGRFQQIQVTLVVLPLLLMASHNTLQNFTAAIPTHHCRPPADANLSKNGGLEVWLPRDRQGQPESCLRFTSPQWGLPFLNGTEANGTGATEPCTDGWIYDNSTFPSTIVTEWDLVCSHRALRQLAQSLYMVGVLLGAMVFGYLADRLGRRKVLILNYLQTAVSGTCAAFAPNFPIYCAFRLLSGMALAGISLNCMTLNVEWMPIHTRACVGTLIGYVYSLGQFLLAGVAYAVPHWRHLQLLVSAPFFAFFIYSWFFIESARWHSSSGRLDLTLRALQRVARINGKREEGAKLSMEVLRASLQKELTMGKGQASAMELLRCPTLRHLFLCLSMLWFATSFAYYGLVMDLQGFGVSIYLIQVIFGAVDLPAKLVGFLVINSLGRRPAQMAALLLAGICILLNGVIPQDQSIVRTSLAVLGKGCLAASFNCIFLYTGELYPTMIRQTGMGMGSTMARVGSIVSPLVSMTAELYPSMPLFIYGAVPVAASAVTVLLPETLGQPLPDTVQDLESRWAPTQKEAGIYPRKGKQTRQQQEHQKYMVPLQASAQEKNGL
Excerpt: as §4, §5, §6

T1 sequence (P02770 25-608): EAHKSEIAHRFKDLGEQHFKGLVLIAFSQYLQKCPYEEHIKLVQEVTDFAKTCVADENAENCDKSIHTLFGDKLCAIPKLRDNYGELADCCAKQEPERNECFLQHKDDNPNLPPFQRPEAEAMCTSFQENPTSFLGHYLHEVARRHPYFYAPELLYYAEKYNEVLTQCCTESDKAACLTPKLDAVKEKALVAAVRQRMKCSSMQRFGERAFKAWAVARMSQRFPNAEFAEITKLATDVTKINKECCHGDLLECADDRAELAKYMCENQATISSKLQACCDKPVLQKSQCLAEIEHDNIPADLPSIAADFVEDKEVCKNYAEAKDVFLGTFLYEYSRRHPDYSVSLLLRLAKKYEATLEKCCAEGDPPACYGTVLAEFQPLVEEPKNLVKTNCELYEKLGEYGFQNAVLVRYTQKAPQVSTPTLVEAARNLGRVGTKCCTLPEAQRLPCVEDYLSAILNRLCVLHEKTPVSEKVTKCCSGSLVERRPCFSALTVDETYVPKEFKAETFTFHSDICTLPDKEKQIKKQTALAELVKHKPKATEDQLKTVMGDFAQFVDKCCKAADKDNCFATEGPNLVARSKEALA

SMILES: CC1(C)[C@@H](OS(=O)(=O)O)CC[C@]2(C)[C@H]3C(=O)C=C4[C@@H]5C[C@@](C)(C(=O)O[C@@H]6O[C@H](C(=O)O)[C@@H](O)[C@H](O)[C@H]6O)CC[C@]5(C)CC[C@@]4(C)[C@]3(C)CC[C@@H]12 [Compound 4, 18β-glycyrrhetyl-3-O-sulfate-30-O-glucuronide]
- albumin-binding ratio in plasma (albumin; pooled EHBR plasma, 1 × 10^4 MW cut-off filter, calculated from detection limit 3.2 nM): more than 99.9%
- concentration in filtrate (albumin; ultracentrifuge filtrate of pooled EHBR plasma): undetectable
- concentration at 12 h [1]: 77 µM
- uptake into cells expressing OAT3 vs mock cells (human OAT3): significantly higher
- uptake by kidney slices, 37°C vs 4°C (rat kidney slices): significantly higher at 37 °C
- uptake into cells expressing OAT1 vs mock cells (human OAT1): significantly higher
